Tested on: HCV genotype-1a variant with glutamine 30 changed to glutamate in the NS5A protein
Format: cell-based
Settings: test compound titrated with BMS-790052 fixed at 200 nM; genotype 1a Q30E replicon
Summary of the method: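 Synergy was assessed by combining several fixed amounts of an NS5A-targeting compound with a titration of the second compound of interest.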

Row | SMILES | Fold-Synergistic 1a (Q30E) [fold]
1 | CC(C)(C)[C@H](NC(=O)C(N)=O)c1nc(-c2ccc(-c3ccc(-c4c[nH]c([C@@H](NC(=O)C(N)=O)C(C)(C)C)n4)cc3)cc2)c[nH]1 [Compound W-42] | >10
2 | CC(C)[C@H](NC(=O)c1cc2ccccc2o1)c1ncc(-c2ccc(-c3ccc(-c4cnc([C@@H](NC(=O)c5cc6ccccc6o5)C(C)C)[nH]4)cc3)cc2)[nH]1 [Compound S-87] | >100
3 | C#CCOC(=O)N[C@H](c1ncc(-c2ccc(-c3ccc(-c4cnc([C@@H](NC(=O)OCC#C)C(C)C)[nH]4)cc3)cc2)[nH]1)C(C)C [Compound S-212] | >10
4 | COC(=O)N[C@H]1CCN([C@H](c2ncc(-c3ccc(-c4ccc(-c5cnc([C@H](C(C)C)N6CC[C@H](NC(=O)OC)C6=O)[nH]5)cc4)cc3)[nH]2)C(C)C)C1=O.O=C(O)C(F)(F)F.O=C(O)C(F)(F)F [Compound P-53] | <10
5 | CCOC(=O)N[C@H](c1ncc(-c2ccc(-c3ccc(-c4cnc([C@@H](NC(=O)OCC)C(C)C)[nH]4)cc3)cc2)[nH]1)C(C)C [Compound S-207] | >10
6 | CC(O)(CC1CC1)C(=O)N[C@H](c1nc(-c2ccc(-c3ccc(-c4cnc([C@@H](NC(=O)C(C)(O)CC5CC5)C(C)(C)C)[nH]4)cc3)cc2)c[nH]1)C(C)(C)C (stereo partly drawn) [Compound B-162] | >100
7 | CC(C)(C)[C@H](NC(=O)c1ncccc1F)c1nc(-c2ccc(-c3ccc(-c4c[nH]c([C@@H](NC(=O)c5ncccc5F)C(C)(C)C)n4)cc3)cc2)c[nH]1 [Compound P-22] | >100
8 | CC(C)[C@H](NC(=O)C(C)(C)C)c1ncc(-c2ccc(-c3ccc(-c4cnc([C@@H](NC(=O)C(C)(C)C)C(C)C)o4)cc3)cc2)o1 [Compound N-2] | >100
9 | CC(C)[C@H](NC(=O)n1c2ccccc2c2ccccc21)c1ncc(-c2ccc(-c3ccc(-c4cnc([C@@H](NC(=O)n5c6ccccc6c6ccccc65)C(C)C)[nH]4)cc3)cc2)[nH]1 [Compound S-233] | >100
10 | CC(C)[C@H](NC(=O)CCC(C)(C)C)c1ncc(-c2ccc(-c3ccc(-c4cnc([C@@H](NC(=O)CCC(C)(C)C)C(C)C)[nH]4)cc3)cc2)[nH]1 [Compound P-81] | >100
11 | CCN(CC)C(=O)NC(c1nc(-c2ccc(-c3ccc(-c4c[nH]c(C(NC(=O)N(CC)CC)C(C)C)n4)cc3)cc2)c[nH]1)C(C)C (stereo not drawn) [Compound S-229] | >100
12 | CC(C)(C)OC(=O)N1CCCC1C(=O)NC(c1nc(-c2ccc(-c3ccc(-c4c[nH]c(C(NC(=O)C5CCCN5C(=O)OC(C)(C)C)C(C)(C)C)n4)cc3)cc2)c[nH]1)C(C)(C)C (stereo not drawn) [Compound W-87] | >100
13 | CC(C)[C@H](NC(=O)C1(CO)CC(F)(F)C1)c1nc(-c2ccc(-c3ccc(-c4c[nH]c([C@@H](NC(=O)C5(CO)CC(F)(F)C5)C(C)C)n4)cc3)cc2)c[nH]1 [Compound N-154] | >100
14 | COC(=O)N[C@H](C(=O)NC1(c2nc(-c3ccc(-c4ccc(-c5c[nH]c(C6(NC(=O)[C@@H](NC(=O)OC)C(C)C)CCC6)n5)cc4)cc3)c[nH]2)CCC1)C(C)C [Compound N-10] | <10
15 | CC(C)C(c1ncc(-c2ccc(-c3ccc(-c4cnc(C(C(C)C)N5CCCCC5=O)[nH]4)cc3)cc2)[nH]1)N1CCCCC1=O (stereo not drawn) [Compound P-52] | >10
16 | CC1(C)C2CCC(C(=O)N[C@H](c3nc(-c4ccc(-c5ccc(-c6c[nH]c([C@@H](NC(=O)C78CCC(C7)C(C)(C)C8O)C7(C)CC7)n6)cc5)cc4)c[nH]3)C3(C)CC3)(C2)C1O (single isomer, unassigned) [Compound Y-117] | >100
17 | CC(C)(C)[C@H](NC(=O)c1ccc(Cl)s1)c1nc(-c2ccc(-c3ccc(-c4c[nH]c([C@@H](NC(=O)c5ccc(Cl)s5)C(C)(C)C)n4)cc3)cc2)c[nH]1 [Compound N-65] | >100
18 | CC(C)[C@H](NC(=O)N1CCN(C)CC1)c1ncc(-c2ccc(-c3ccc(-c4cnc([C@@H](NC(=O)N5CCN(C)CC5)C(C)C)[nH]4)cc3)cc2)[nH]1 [Compound S-235] | >10
19 | CC(C)(C)C(=O)NC(c1nc(-c2ccc(-c3ccc(-c4c[nH]c(C(NC(=O)C(C)(C)C)C5(C(F)(F)F)CC5)n4)cc3)cc2)c[nH]1)C1(C(F)(F)F)CC1 (single isomer, unassigned) [Compound N-107A] | >100
20 | CN1CCC(C(=O)N[C@H](c2nc(-c3ccc(-c4ccc(-c5c[nH]c([C@@H](NC(=O)C6CCN(C)CC6)C(C)(C)C)n5)cc4)cc3)c[nH]2)C(C)(C)C)CC1 [Compound S-268] | >10
21 | CC[C@H](C(=O)N[C@H](c1ncc(-c2ccc(-c3ccc(-c4cnc([C@@H](NC(=O)[C@@H](CC)c5ccccc5)C(C)C)[nH]4)cc3)cc2)[nH]1)C(C)C)c1ccccc1 [Compound P-61] | >100

Row | SMILES | Fold-Synergistic 1a (Q30E) [fold]
22 | CC(C)[C@H](NC(=O)C(C)(C)Oc1ccc(Cl)cc1)c1ncc(-c2ccc(-c3ccc(-c4cnc([C@@H](NC(=O)C(C)(C)Oc5ccc(Cl)cc5)C(C)C)[nH]4)cc3)cc2)[nH]1 [Compound P-65] | >100
23 | CC(C)(C)[C@H](NC(=O)C1CCCCO1)c1nc(-c2ccc(-c3ccc(-c4c[nH]c([C@@H](NC(=O)C5CCCCO5)C(C)(C)C)n4)cc3)cc2)c[nH]1 (stereo partly drawn) [Compound Y-6] | >100
24 | CC(C)(C)[C@H](NC(=O)C(C)(C)C1(O)CCC(F)(F)CC1)c1ncc(-c2ccc(-c3ccc4nc([C@@H](NC(=O)C(C)(C)C5(O)CCC(F)(F)CC5)C(C)(C)C)[nH]c4c3)cc2)[nH]1 [Compound B58A] | >100
25 | CC(C)(C)C(=O)N[C@H](c1ncc(C#Cc2ccc3cc(-c4cnc([C@@H](NC(=O)C(C)(C)C)C(C)(C)C)[nH]4)ccc3c2)[nH]1)C(C)(C)C [Compound B2] | >100
26 | CC(C)(C)[C@H](NC(=O)C1CCC(F)(F)CC1)c1ncc(-c2ccc(-c3ccc(-c4cnc([C@@H](NC(=O)C5CCC(F)(F)CC5)C(C)(C)C)[nH]4)s3)cc2)[nH]1 [Compound B57] | >100
27 | CC(C)(C)[C@H](NC(=O)[C@@]1(C)CCC(F)(F)CO1)c1ncc(-c2ccc([C@H]3C[C@@H]3c3ccc(-c4cnc([C@@H](NC(=O)[C@@]5(C)CCC(F)(F)CO5)C(C)(C)C)[nH]4)cc3)cc2)[nH]1 [Compound B-187] | >100
28 | CC(O)C1(C(=O)N[C@H](c2ncc(-c3ccc(-c4ccc(-c5cnc([C@@H](NC(=O)C6(C(C)O)CC6)C(C)(C)C)[nH]5)cc4)cc3)[nH]2)C(C)(C)C)CC1 (single isomer, unassigned) [Compound B74] | >100
29 | CC(C)[C@H](NC(=O)N(C(C)C)C(C)C)c1nc(-c2ccc(-c3ccc(-c4c[nH]c([C@@H](NC(=O)N(C(C)C)C(C)C)C(C)C)n4)cc3)cc2)c[nH]1 [Compound S-230] | >100
30 | CN(CC(F)(F)F)C(C)(C)C(=O)NC(c1nc(-c2ccc(-c3ccc(-c4c[nH]c(C(NC(=O)C(C)(C)N(C)CC(F)(F)F)C(C)(C)C)n4)cc3)cc2)c[nH]1)C(C)(C)C [Compound L-62] | >100
31 | Cc1cc(-c2ccc(-c3c[nH]c([C@@H](NC(=O)C4(C)CCCC4)C(C)C)n3)cc2)ccc1-c1c[nH]c([C@@H](NC(=O)C2(C)CCCC2)C(C)C)n1.O=C(O)C(F)(F)F [Compound N-80] | >100
32 | CC(C)[C@H](NC(=O)C12CC3CC(CC(C3)C1)C2)c1ncc(-c2ccc(-c3ccc(-c4cnc([C@@H](NC(=O)C56CC7CC(CC(C7)C5)C6)C(C)C)[nH]4)cc3)cc2)[nH]1 [Compound P-60] | >100
33 | COC(=O)NC(C(=O)NC(c1ncc(-c2ccc(-c3ccc(-c4cnc(C5CCCN5C(=O)C(NC(=O)OC)C(C)C)[nH]4)cc3)cc2)[nH]1)C(C)(C)C)C(C)C (stereo not drawn) [Compound B-196] | >10
34 | CC1CN(C(=O)C(=O)N[C@H](c2nc(-c3ccc(-c4ccc(-c5c[nH]c([C@@H](NC(=O)C(=O)N6CC(C)OC(C)C6)C(C)(C)C)n5)cc4)cc3)c[nH]2)C(C)(C)C)CC(C)O1 (single isomer, unassigned) [Compound W-40C] | >100
35 | CC(C)N(CC(F)(F)F)C(=O)C(=O)N1CCC(C)(C)C1c1nc(-c2ccc(-c3ccc(-c4c[nH]c(C5N(C(=O)C(=O)N(CC(F)(F)F)C(C)C)CCC5(C)C)n4)cc3)cc2)c[nH]1 (stereo not drawn) [Compound W-236] | >100
36 | CC(C)[C@H](NC(=O)c1cc(F)ccc1F)c1ncc(-c2ccc(-c3ccc(-c4cnc([C@@H](NC(=O)c5cc(F)ccc5F)C(C)C)[nH]4)cc3)cc2)[nH]1 [Compound S-63] | >100
37 | CC1(C)CCN(C(=O)C(=O)c2ccccc2)C1c1nc(-c2ccc(-c3ccc(-c4c[nH]c(C5N(C(=O)C(=O)c6ccccc6)CCC5(C)C)n4)cc3)cc2)c[nH]1 (stereo not drawn) [Compound W-224] | >10
38 | CC(C)(C)[C@H](NC(=O)C1CCC(F)(F)CC1)c1nc2c([nH]1)-c1ccc(-c3ccc4c(c3)CCc3nc([C@@H](NC(=O)C5CCC(F)(F)CC5)C(C)(C)C)[nH]c3-4)cc1CC2 [Compound B23] | >100
39 | COc1ccc(C(=O)N[C@H](c2nc(-c3ccc(-c4ccc(-c5c[nH]c([C@@H](NC(=O)c6ccc(OC)cc6)C(C)(C)C)n5)cc4)cc3)c[nH]2)C(C)(C)C)cc1 [Compound N-54] | >100
40 | CCn1nc(C)cc1C(=O)N[C@H](c1ncc(-c2ccc(-c3ccc(-c4cnc([C@@H](NC(=O)c5cc(C)nn5CC)C(C)C)[nH]4)cc3)cc2)[nH]1)C(C)C [Compound S-99] | >10
41 | CC(C)[C@H](NC(=O)CC1CC1)c1ncc(-c2ccc(-c3ccc(-c4cnc([C@@H](NC(=O)CC5CC5)C(C)C)[nH]4)cc3)cc2)[nH]1 [Compound S-50] | >10
42 | CC(C)[C@H](NC(=O)C(C)(C)C)c1ncc(-c2ccc(-c3ccc(-c4cnc([C@@H](NC(=O)C(C)(C)C)C(C)(C)C)[nH]4)cc3)cc2)[nH]1 [Compound Y-41] | >100
